Test results: patent US20260098030A1, “NEGATIVE ALLOSTERIC MODULATORS OF METABOTROPIC GLUTAMATE RECEPTOR 2” (Vanderbilt University, priority 2022, published 2026)
pIC50: −log10 of the molar value. Values belong to the molecule of their own block, whether it stands above or below them.

Legend:
[1] = test system: Dutch APP transgenic mice; details: cited from earlier work
rat mGlu2 = biological target: T1, rat mGlu2 (Rattus norvegicus, UniProt P31421); test: mGlu GIRK cell-based thallium flux assay, rat mGlu2; details: HEK-293 cells co-expressing rat mGlu2 and GIRK, EC80 glutamate
T1 construct: expressed in transfected cells; host or cells: HEK-293 cells stably co-expressing GIRK channels
In short: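 HEK-293 cells stably co-expressing GIRK with human mGlu3, human mGlu2 or rat mGlu2 were loaded 1 h at 25° C with Thallos dye, then given compound (30 μM to 1.5 nM final, 10-point) for 2 min 20 s before EC80 glutamate plus thallium. Baseline-corrected fluorescence slope, normalized to ECmax glutamate, fitted to 4-parameter logistic for IC50.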

Rat mGlu3 = Rat mGlu3 (UniProt P31422); test: mGlu GIRK cell-based thallium flux assay, mGlu3; details: HEK-293 cells co-expressing mGlu3 and GIRK, EC80 glutamate
rat = details: normal animals; cited from earlier work
mouse = details: normal animals; cited from earlier work
[2] = test system: central mGlu2 and mGlu3 receptors; details: in vivo; cited from earlier work
C57B16/J mice = details: cited from earlier work
Helpless (H) mice = details: cited from earlier work; for activity in the tail suspension test: Helpless (H) mice; for antidepressant effect in helpless mice: LY341495 acute administration, fluoxetine chronic (21 days) treatment
mice = details: cited from earlier work
mGlu2 = details: cited from earlier work
[3] = treatment for 7 days; cited from earlier work
[4] = test system: olfactory bulbectomized rats; details: repeated administration for 14 days; cited from earlier work
[5] = test system: social isolation-reared mice; details: cited from earlier work
[6] = in vivo; cited from earlier work

T1 sequence (P31421 19-872): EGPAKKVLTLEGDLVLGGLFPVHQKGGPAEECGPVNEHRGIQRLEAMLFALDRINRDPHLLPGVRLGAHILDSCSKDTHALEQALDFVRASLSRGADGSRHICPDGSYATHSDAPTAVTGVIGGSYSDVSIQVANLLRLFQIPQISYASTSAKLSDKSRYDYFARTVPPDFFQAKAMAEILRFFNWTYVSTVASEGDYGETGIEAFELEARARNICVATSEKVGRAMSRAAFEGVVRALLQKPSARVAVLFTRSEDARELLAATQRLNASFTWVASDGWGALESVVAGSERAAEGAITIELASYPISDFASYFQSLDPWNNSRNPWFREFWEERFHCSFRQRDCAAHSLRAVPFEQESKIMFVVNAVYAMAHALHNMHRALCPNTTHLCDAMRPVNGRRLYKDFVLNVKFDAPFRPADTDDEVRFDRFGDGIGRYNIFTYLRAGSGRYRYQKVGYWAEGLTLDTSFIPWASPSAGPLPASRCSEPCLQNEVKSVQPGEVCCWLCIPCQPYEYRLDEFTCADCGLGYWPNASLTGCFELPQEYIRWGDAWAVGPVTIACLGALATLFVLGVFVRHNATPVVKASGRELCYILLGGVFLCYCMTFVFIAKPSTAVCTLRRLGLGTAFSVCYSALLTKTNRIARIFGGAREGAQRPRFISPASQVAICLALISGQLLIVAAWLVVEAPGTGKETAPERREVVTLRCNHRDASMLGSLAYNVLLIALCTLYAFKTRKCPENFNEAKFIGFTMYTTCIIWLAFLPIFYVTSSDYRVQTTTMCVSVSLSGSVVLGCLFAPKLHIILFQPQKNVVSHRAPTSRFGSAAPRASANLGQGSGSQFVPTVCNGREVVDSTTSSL

Compound: CCCCCCCOC(=O)[C@@]1(F)[C@@H]2C[C@@H](OCc3ccc(Cl)c(Cl)c3)[C@@](N)(C(=O)O)[C@@H]21 [BCI-838]
duration of inhibition of group II mGlu receptors by brain concentration of active metabolite BCI-632 ([1]; once-daily oral dosing): 22 h | learning and memory impairment ([1]; three months of treatment, Dutch APP transgene): reversed Dutch APP transgene-associated learning and memory impairment | anxiolytic effects ([1]; three months of treatment): provided anxiolytic effects | levels of monomeric and oAβ peptides in the hippocampus and cortex ([1]; three months of treatment, two AD mouse models): decreased the levels of monomeric and oAβ peptides | hippocampal progenitor cell proliferation ([1]; wild-type and Alzheimer's diseased mice, 3 months): stimulated hippocampal progenitor cell proliferation

pIC50 (rat mGlu2): 6.32 | pIC50 (Rat mGlu3): < 5.00
Compound: N#Cc1cccc(-c2cc3c(cc2-c2ccc(F)cc2F)C(=O)NC3)c1F [Compound 94, 3-(6-(2,4-difluorophenyl)-1-oxoisoindolin-5-yl)-2-fluorobenzonitrile]

pIC50 (rat mGlu2): 6.23 | pIC50 (Rat mGlu3): < 5.00
Compound: Cc1ccc(C#N)cc1-c1cc2c(cc1-c1ccc(F)cc1F)C(=O)NC2 [Compound 96, 3-(6-(2,4-difluorophenyl)-1-oxoisoindolin-5-yl)-4-methylbenzonitrile]

pIC50 (rat mGlu2): 6.87 | pIC50 (Rat mGlu3): 5.58
Compound: Cc1cc(-c2cc3c(cc2-c2ccc(F)cc2F)C(=O)NC3)c(C#N)n1C [Compound 98, 3-(6-(2,4-difluorophenyl)-1-oxoisoindolin-5-yl)-1,5-dimethyl-1H-pyrrole-2-carbonitrile]

pIC50 (rat mGlu2): 6.27 | pIC50 (Rat mGlu3): < 5.00
Compound: COc1cncc(-c2cc3c(cc2-c2ccc(F)cc2F)C(=O)NC3)c1 [Compound 101, 6-(2,4-difluorophenyl)-5-(5-methoxypyridin-3-yl)isoindolin-1-one]

pIC50 (rat mGlu2): 6.46 | pIC50 (Rat mGlu3): 5.32
Compound: O=C1NCc2cc(-c3ccn(C4CC4)n3)c(-c3ccc(F)cc3F)cc21 [Compound 108, 5-(1-cyclopropyl-1H-pyrazol-3-yl)-6-(2,4-difluorophenyl)isoindolin-1-one]

Compound: N[C@](CC1c2ccccc2Oc2ccccc21)(C(=O)O)[C@H]1C[C@@H]1C(=O)O [LY341495]
antidepressant-like effects in rat forced swim test (rat): Antidepressant-like effects | antidepressant-like effects in mouse tail-suspension test (mouse): Antidepressant-like effects | hypolocomotor effect of mGlu2/3 agonist (LY379268) [2]: achieved the same result | immobility time in the FST (C57B16/J mice): dose-dependently reduced immobility time | activity in the tail suspension test (Helpless (H) mice): active | antidepressant effect in helpless mice (Helpless (H) mice): potent antidepressant effect | marble-burying behavior (mice): significantly reduce marble-burying behavior | Aβ-induced neurodegeneration (mGlu2): this effect was prevented

Compound: CCS(=O)(=O)N(Cc1cccnc1)c1cccc(-c2ccc(C#N)cc2)c1 [LY566332]
Aβ-induced neurodegeneration (mGlu2): amplified Aβ-induced neurodegeneration

Compound: N[C@]1(C(=O)O)[C@H]2[C@@H](C[C@H]1OCc1ccc(Cl)c(Cl)c1)[C@]2(F)C(=O)O [MGS0039]
antidepressant-like effects in rat forced swim test (rat): Antidepressant-like effects | antidepressant-like effects in mouse tail-suspension test (mouse): Antidepressant-like effects | number of escape failures, learned helplessness test [3]: significantly reduced the number of escape failures | hyperactivity in the open field test [4]: attenuated the hyperactivity | learning deficit in the passive avoidance test [4]: attenuated the learning deficit | immobility in the FST [5]: reversed the increased immobility | marble-burying behavior (mice): reduced marble-burying behavior in a significant and dose dependent manner | spontaneous locomotor activity (mice): no significant change | freezing behavior, CFS model [6]: significantly decreased freezing behavior

Compound: Cc1cc(-c2cccc(C3=Nc4cc(C)c(C(F)(F)F)cc4NC(=O)C3)c2)cc(C)n1 [RO4491533]
hypolocomotor effect of mGlu2/3 agonist (LY379268) [2]: reversed the hypolocomotor effect | immobility time in the FST (C57B16/J mice): dose-dependently reduced immobility time | activity in the tail suspension test (Helpless (H) mice): active

Compound: CNCCC(Oc1ccc(C(F)(F)F)cc1)c1ccccc1 (stereo not shown) [fluoxetine]
antidepressant effect in helpless mice (Helpless (H) mice): full antidepressant effect
